Reference: article PMC9862305 (Plants, 2023)
≈ marks a conversion by molar mass, not a printed value. Where two headings read alike, the source gives them in different places.

Columns and labels:
[1] = system: AChE; details: cited from earlier work; for IC50 (AChE inhibitory activity): individual compound
[2] = molecular target: T1, Butyrylcholinesterase from equine serum (Equus caballus, UniProt P81908); test: biochemical
T1 construct: using BChE from equine serum (lyophilized powder ≥ 500 units/mg protein); purchased Sigma-Aldrich; host or cells: equine serum
T1 sequence (P81908 whole entry): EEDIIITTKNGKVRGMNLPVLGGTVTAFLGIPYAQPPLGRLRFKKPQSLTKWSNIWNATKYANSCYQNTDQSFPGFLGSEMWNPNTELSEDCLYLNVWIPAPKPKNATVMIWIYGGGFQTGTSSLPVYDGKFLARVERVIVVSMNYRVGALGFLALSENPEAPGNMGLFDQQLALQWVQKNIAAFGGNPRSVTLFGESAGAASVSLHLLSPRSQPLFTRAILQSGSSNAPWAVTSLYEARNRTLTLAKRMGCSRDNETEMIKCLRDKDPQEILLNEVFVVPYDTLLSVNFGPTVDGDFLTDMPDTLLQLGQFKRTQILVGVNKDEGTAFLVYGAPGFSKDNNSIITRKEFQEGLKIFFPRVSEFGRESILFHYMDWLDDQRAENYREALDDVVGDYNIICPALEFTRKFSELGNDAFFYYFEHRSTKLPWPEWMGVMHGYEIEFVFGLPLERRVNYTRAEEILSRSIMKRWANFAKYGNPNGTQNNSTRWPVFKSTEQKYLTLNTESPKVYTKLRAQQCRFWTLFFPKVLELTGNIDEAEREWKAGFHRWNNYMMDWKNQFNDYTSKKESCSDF
Description: (§1) The cholinesterase inhibitory potentials of the isolated compounds were evaluated via a spectrophotometric approach, which was adapted by Ellman’s method. […] Enzyme inhibition is a beneficial approach in order to evaluate the pharmacological potential of herbal remedies and pure substances. The inhibition of the AChE and BChE enzymes has been linked to the alleviation of symptoms associated with memory impairment in AD [10]. […] Methoxylation may decrease or increase activity depending on the type of flavonoids (flavones, flavanones, or isoflavones). […] Moreover, the hydrogenation of the double bond next to the carbonyl carbon in the structure of flavanones also decreases their affinity for cholinesterase inhibitory activity. However, there are some exceptions to the aforementioned observation of structure–activity relationship in the literature.
(§2) Acetylcholinesterase (AchE) from Electrophorus electricus (electrical eels, type VI-S, 200–1000 unit/mg), Butyrylcholinesterase from equine serum (lyophilized powder ≥ 500 units/mg protein), substrate acetylthiocholine iodide (ATCI), S-butyrylthiocholine iodide (BTCI), sodium phosphate monobasic, and sodium phosphate dibasic were purchased from Sigma-Aldrich (St. Louis, MO, USA). The coloring agent 5,5-dithio-bis-[2-nitrobenzoic acid] (DTNB), and β-sitosterol were obtained from Acros Organics (Acros Organics, NJ, USA). […] Silica gel (Kieselgel 60, 230–400 mesh atm) was purchased from Merck (Darmstadt, Germany). The solvents were of analytical grade and used as received.
(§3) Each run was carried out in triplicate on three consecutive days. Anti-BChE assays were performed using the same procedures described above but using BChE from equine serum (lyophilized powder ≥ 500 units/mg protein) instead of AChE and BTCI instead of ACTI. The final absorbance of each tested sample was calculated by subtracting the absorbance of their respective blank without enzyme addition. […] Then, the IC50 values of all tested samples and standards were calculated from the curve of the % inhibition versus concentration. (1) % Inhibition=Abs −ve control−Abs test sample/Abs −ve control×100

[3] = molecular target: T2, Acetylcholinesterase (AChE) from Electrophorus electricus (Electrophorus electricus, UniProt O42275); test: biochemical
T2 construct: purchased Sigma-Aldrich type VI-S (catalogue number not given)
T2 sequence (O42275 24-633): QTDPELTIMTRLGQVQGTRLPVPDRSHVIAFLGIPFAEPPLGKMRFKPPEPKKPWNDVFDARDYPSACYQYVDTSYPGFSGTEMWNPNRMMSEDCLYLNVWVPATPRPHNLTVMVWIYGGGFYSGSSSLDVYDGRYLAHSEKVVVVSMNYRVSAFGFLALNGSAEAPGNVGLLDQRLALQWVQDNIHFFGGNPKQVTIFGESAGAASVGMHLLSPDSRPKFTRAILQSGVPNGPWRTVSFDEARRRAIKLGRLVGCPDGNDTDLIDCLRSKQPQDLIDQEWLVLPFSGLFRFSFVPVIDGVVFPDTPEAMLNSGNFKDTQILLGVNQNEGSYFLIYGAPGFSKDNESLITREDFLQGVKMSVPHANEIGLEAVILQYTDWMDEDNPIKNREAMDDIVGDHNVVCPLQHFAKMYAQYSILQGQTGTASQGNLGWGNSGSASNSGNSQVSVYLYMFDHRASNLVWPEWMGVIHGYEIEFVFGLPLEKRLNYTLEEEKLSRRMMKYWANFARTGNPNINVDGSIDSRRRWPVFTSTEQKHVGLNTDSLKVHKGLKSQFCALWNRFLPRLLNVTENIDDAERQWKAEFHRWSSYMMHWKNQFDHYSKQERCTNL
Description: as §1, §2, §3

[4] = system: BChE; details: cited from earlier work
[5] = BChE (IC50) µM, isolated compounds, Table 4
[6] = BChE (IC50) µg/mL, isolated compounds, Table 4
[7] = AChE (IC50) µM, isolated compounds, Table 4
[8] = AChE (IC50) µg/mL, isolated compounds, Table 4
[9] = isolated compounds, Table 4, read-out: AChE (IC50)
[10] = read-out: AChE (IC50) µg/mL (converted)
[11] = luteolin isolated from Globularia meridionalis

Question: For `CC[C@H](/C=C/[C@@H](C)[C@H]1CC[C@H]2[C@@H]3CC=C4C[C@@H](O)CC[C@]4(C)[C@H]3CC[C@]12C)C(C)C` [Compound 4, Stigmasterol], which IC50 (AChE inhibitory activity) [1] is on record?
Answer: 63 µg/mL (≈ 153 µM)

Question: Which IC50 [2, 5] does the source give for `O=C(O)/C=C/c1ccccc1` [Compound 5, Cinnamic acid] here?
Answer: 373 ± 16.4 µM

Question: And the IC50 [2, 6]?
Answer: 373 µM

Question: For `O=C(O)C=Cc1ccc(O)cc1` [Compound 6, 4-Hydroxycinnamic acid], which IC50 [3, 7] is on record?
Answer: 43.4 ± 0.61 µM

Question: And the IC50 [3, 8]?
Answer: 43.4 µM

Question: What about the IC50 [2, 5] of the same molecule?
Answer: 409 ± 14.8 µM

Question: What about the IC50 [2, 6] of the same molecule?
Answer: 409 µM

Question: Which IC50 [3, 9] does the source give for `CCCCCCCCCCCCCCCCCCCCOC(=O)CCCCCCCCCCCCCCCCCCC` [Compound 1, Arachidyl arachidate] here?
Answer: 248.6 ± 2.24 µM

Question: And the IC50 [3, 10]?
Answer: 249 µM

Question: What about the IC50 ([2]; read-out: BChE (IC50) µg/mL) of the same molecule?
Answer: > 253 µM

Question: For `CC[C@H](CC[C@@H](C)[C@H]1CC[C@H]2[C@@H]3CC=C4C[C@@H](O)CC[C@]4(C)[C@H]3CC[C@]12C)C(C)C` [Compound 3, β-sitosterol], which IC50 [3, 7] is on record?
Answer: 137 ± 8.66 µM

Question: And the IC50 [3, 8]?
Answer: 137 µM

Question: And the IC50 [2, 5]?
Answer: 157 ± 7.26 µM

Question: And the IC50 [2, 6]?
Answer: 157 µM

Question: What about the “IC50 (AChE inhibitory activity)” value [1] of the same molecule?
Answer: 55 µg/mL (≈ 133 µM)

Question: Which IC50 ([1]; read-out: IC50 (AChE)) does the source give for `O=c1cc(-c2ccc(O)cc2)oc2cc(O)cc(O)c12` [apigenin] here?
Answer: 34.4 ± 2.41 µM

Question: Which IC50 [3, 9] does the source give for `O=Cc1ccc(CO)o1` [Compound 7] here?
Answer: 158 ± 3.49 µM

Question: And the IC50 [3, 10]?
Answer: 158 µM

Question: What about the IC50 ([2]; read-out: BChE (IC50) µg/mL) of the same molecule?
Answer: > 793 µM

Question: With `O=c1cc(-c2ccccc2)oc2cc(O)c(O)c(O)c12` [baicalein] as the molecule, how does the IC50 ([1]; read-out: IC50 (AChE)) read?
Answer: 46 ± 3.44 µM

Question: For `COc1ccc(-c2cc(=O)c3c(O)cc(O[C@@H]4O[C@H](CO)[C@H](O)[C@H](O)[C@H]4O)cc3o2)cc1` [acacetin-7-O-beta-D-galactopyranoside], which IC50 ([1]; read-out: IC50) is on record?
Answer: 6.7 µM

Question: For `O=c1cc(-c2ccc(O)c(O)c2)oc2cc(O)cc(O)c12` [Compound 2, Luteolin], which IC50 [3, 7] is on record?
Answer: 20.5 ± 1.1 µM

Question: What about the IC50 [3, 8] of the same molecule?
Answer: 20.5 µM

Question: And the IC50 [2, 5]?
Answer: 46.2 ± 2.2 µM

Question: What about the IC50 [2, 6] of the same molecule?
Answer: 46.2 µM

Question: And the “IC50 for BuChE” value [4, 11]?
Answer: 37.2 ± 0.5 µg/mL

Question: And the “IC50 for AChE” value [1, 11]?
Answer: 25.2 ± 0.4 µg/mL

Question: And the IC50 ([1]; luteolin isolated from Rhizoma drynariae, read-out: AChE inhibition potential)?
Answer: 17.3 ± 0.23 µM

Question: Which “IC50 for BChE” value [4] does the source give for Omifoate A [reference compound] here?
Answer: 9.07 µg/mL

Question: And the “IC50 for AChE” value [1]?
Answer: 6.51 µg/mL

Question: Which IC50 ([1]; read-out: IC50) does the source give for `COc1ccc(-c2cc(=O)c3c(O)cc(O)cc3o2)cc1` [acacetin] here?
Answer: 65.3 µM
